Counter-ions that a name gives are not always drawn.
Compound | melting point
CC(C)N(C)CC1(c2cccc(C(F)(F)F)c2)CCN(C(=O)CN2CCN(c3cnccn3)CC2)CC1.Cl.Cl.Cl | 185 to 200 °C
COc1cccc(C2(CN)CCN(C(=O)CN3CCN(c4cnccn4)CC3)CC2)c1.O=C(O)C(=O)O.O=C(O)C(=O)O | 120 °C
O=C(CN1CCN(c2ccncn2)CC1)N1CC=C(c2cccc(C(F)(F)F)c2)CC1 (as salt: oxalate) [Compound No. 27, 2-[4-(4-Pyrimidinyl)-1-piperazinyl]-1-[4-[3-(trifluoromethyl)phenyl]-3,6-dihydro-1(2H)-pyridyl]-1-ethanone dioxalate] | 160 °C
NCC1(c2cccc(C(F)(F)F)c2)CCN(C(=O)CN2CCN(c3cnccn3)CC2)CC1 [Compound No. 4, 1-[4-(Aminomethyl)-4-[3-(trifluoromethyl)phenyl]-1-piperidyl]-2-[4-(2-pyrazinyl)-1-piperazinyl]-1-ethanone] | 152 to 153 °C
O=C(CN1CCN(c2cnccn2)CC1)N1CCC(CO)(c2cccc(C(F)(F)F)c2)CC1 [Compound No. 32, 1-[4-(Hydroxymethyl)-4-[3-(trifluoromethyl)phenyl]-1-piperidyl]-2-[4-(2-pyrazinyl)-1-piperazinyl]-1-ethanone] | 223 °C
CN(C)CC1(c2cccc(C(F)(F)F)c2)CCN(C(=O)CN2CCN(c3cnccn3)CC2)CC1 [Compound No. 33, 1-[4-[(Dimethylamino)methyl]-4-[3-(trifluoromethyl)phenyl]-1-piperidyl]-2-[4-(2-pyrazinyl)-1-piperazinyl]-1-ethanone] | 118 °C
CNCC1(c2cccc(C(F)(F)F)c2)CCN(C(=O)CN2CCN(c3cnccn3)CC2)CC1 [Compound No. 57, 1-[4-[(Methylamino)methyl]-4-[3-(trifluoromethyl)phenyl]-1-piperidyl]-2-[4-(2-pyrazinyl)-1-piperazinyl]-1-ethanone] | 137 to 139 °C
NCC1(c2cccc(Cl)c2)CCN(C(=O)CN2CCN(c3cnccn3)CC2)CC1 [Compound No. 65, 1-[4-(Aminomethyl)-4-(3-chlorophenyl)-1-piperidyl]-2-[4-(2-pyrazinyl)-1-piperazinyl]-1-ethanone] | 138 to 139 °C

— patent publication US7468368B2, “Piperazinylacylpiperidine derivatives, their preparation and therapeutic use thereof” (Sanofi Aventis, priority 2002, dated 2008)
